Common to all, as to assay type: functional
Assay [1] concerns Cryptococcus neoformans. Put plainly: Antifungal activity against Cryptococcus neoformans after 72 hrs by NCCLS protocol based method.
In assay [2] the test system is Candida tropicalis. Put plainly: Antifungal activity against Candida tropicalis after 24 hrs by NCCLS protocol based method.
For assay [3], the system named is Candida albicans. Put plainly: Antifungal activity against Candida albicans after 24 hrs by NCCLS protocol based method.
Assay [4] has as its system Candida parapsilosis. Put plainly: Antifungal activity against Candida parapsilosis after 24 hrs by NCCLS protocol based method. Conditions: Lodderomyces parapsilosis.
For the next assay, the system named is Fonsecaea compacta. Put plainly: Antifungal activity against Fonsecaea compacta after 24 hrs by NCCLS protocol based method.
In assay [5] the test system is Trichophyton rubrum. Put plainly: Antifungal activity against Trichophyton rubrum after 7 days by NCCLS protocol based method. Conditions: 168 h.
The test system of assay [6] is Trichophyton rubrum. Put plainly: Antifungal activity against Trichophyton rubrum.
Assay [7] relates to Candida albicans. The assay is described as follows: Antifungal activity against Candida albicans.
The next assay deals with Aspergillus fumigatus. Put plainly: Antifungal activity against Aspergillus fumigatus.
Assay [8] concerns Candida tropicalis. The assay is described as follows: Antifungal activity against Candida tropicalis.
In assay [9] the test system is Candida parapsilosis. The assay is described as follows: Antifungal activity against Candida parapsilosis.
In assay [10] the test system is Cryptococcus neoformans. Put plainly: Antifungal activity against Cryptococcus neoformans.
A further assay has as its system Kluyveromyces marxianus. Put plainly: Antifungal activity against Candida kefyr.

Converted amounts (≈) assume the structure as drawn.

Regarding `CCCCCc1ccc(C(=O)OC2CCN(CC(O)(Cn3cncn3)c3ccc(F)cc3F)CC2)cc1` (stereo unspecified), the MIC80 with Cryptococcus neoformans [1], in the assay on Candida tropicalis [2], against Candida albicans [3], in the assay with Candida parapsilosis [4], with Fonsecaea compacta and in the assay on Trichophyton rubrum [5] was 3.9 to 62.5 ng/mL (≈ 7.61 to 122 nM) throughout.

As to `O=C(OC1CCN(CC(O)(Cn2cncn2)c2ccc(F)cc2F)CC1)c1ccc(Cl)cc1Cl` (stereo unspecified), the MIC80 against Cryptococcus neoformans [1], with Candida tropicalis [2], with Candida albicans [3], with Candida parapsilosis [4], in the assay on Fonsecaea compacta and with Trichophyton rubrum [5] was 3.9 to 62.5 ng/mL (≈ 7.63 to 122 nM) each time.

Turning to `COc1ccc(C(=O)OC2CCN(CC(O)(Cn3cncn3)c3ccc(F)cc3F)CC2)cc1OC` (stereo unspecified), the MIC80 against Cryptococcus neoformans [1], against Candida tropicalis [2], against Candida albicans [3], against Candida parapsilosis [4], against Fonsecaea compacta and in the assay on Trichophyton rubrum [5] was 3.9 to 62.5 ng/mL (≈ 7.76 to 124 nM) in each case.

For the compound `CCCc1ccc(C(=O)OC2CCN(CC(O)(Cn3cncn3)c3ccc(F)cc3F)CC2)cc1` (stereo unspecified), the MIC80 against Cryptococcus neoformans [1], in the assay with Candida tropicalis [2], against Candida albicans [3], in the assay with Candida parapsilosis [4], in the assay with Fonsecaea compacta and with Trichophyton rubrum [5] was 3.9 to 62.5 ng/mL (≈ 8.05 to 129 nM) each time.

In the case of `Cc1ccc(C(=O)OC2CCN(CC(O)(Cn3cncn3)c3ccc(F)cc3F)CC2)cc1C` (stereo unspecified), the MIC80 in the assay with Cryptococcus neoformans [1], with Candida tropicalis [2], against Candida albicans [3], in the assay on Candida parapsilosis [4], with Fonsecaea compacta and against Trichophyton rubrum [5] was 3.9 to 62.5 ng/mL (≈ 8.29 to 133 nM) throughout.

Take `O=C(OC1CCN(CC(O)(Cn2cncn2)c2ccc(F)cc2F)CC1)c1ccc(F)cc1` (stereo unspecified): the MIC80 against Cryptococcus neoformans [1], in the assay with Candida tropicalis [2], against Candida albicans [3], against Candida parapsilosis [4], in the assay on Fonsecaea compacta and against Trichophyton rubrum [5] was 3.9 to 62.5 ng/mL (≈ 8.47 to 136 nM) throughout.

In the case of `O=C(OC1CCN(CC(O)(Cn2cncn2)c2ccc(F)cc2F)CC1)c1ccccc1[N+](=O)[O-]` (stereo unspecified), the MIC80 in the assay with Cryptococcus neoformans [1], against Candida tropicalis [2], against Candida albicans [3], with Candida parapsilosis [4], in the assay on Fonsecaea compacta and in the assay on Trichophyton rubrum [5] was 3.9 to 62.5 ng/mL (≈ 8 to 128 nM) in each case.

On to `CCCCc1ccc(C(=O)OC2CCN(CC(O)(Cn3cncn3)c3ccc(F)cc3F)CC2)cc1` (stereo unspecified), for which the MIC80 in the assay with Cryptococcus neoformans [1], against Candida tropicalis [2], against Candida albicans [3], against Candida parapsilosis [4], against Fonsecaea compacta and against Trichophyton rubrum [5] was 3.9 to 62.5 ng/mL (≈ 7.82 to 125 nM) throughout.

Regarding `O=C(OC1CCN(CC(O)(Cn2cncn2)c2ccc(F)cc2F)CC1)c1cccc(C(F)(F)F)c1` (stereo unspecified), the MIC80 against Cryptococcus neoformans [1], in the assay on Candida tropicalis [2], with Candida albicans [3], with Candida parapsilosis [4], in the assay on Fonsecaea compacta and with Trichophyton rubrum [5] was 3.9 to 62.5 ng/mL (≈ 7.64 to 122 nM) each time.

Regarding `O=C(OC1CCN(CC(O)(Cn2cncn2)c2ccc(F)cc2F)CC1)c1ccc(Cl)cc1` (stereo unspecified), the MIC80 in the assay on Cryptococcus neoformans [1], against Candida tropicalis [2], against Candida albicans [3], in the assay on Candida parapsilosis [4], in the assay with Fonsecaea compacta and in the assay on Trichophyton rubrum [5] was 3.9 to 62.5 ng/mL (≈ 8.18 to 131 nM) each time.

In the case of `O=C(OC1CCN(CC(O)(Cn2cncn2)c2ccc(F)cc2F)CC1)c1cccc(Cl)c1` (stereo unspecified), the MIC80 against Cryptococcus neoformans [1], in the assay with Candida tropicalis [2], with Candida albicans [3], against Candida parapsilosis [4], with Fonsecaea compacta and against Trichophyton rubrum [5] was 3.9 to 62.5 ng/mL (≈ 8.18 to 131 nM) each time.

Take `COc1ccc(C(=O)OC2CCN(CC(O)(Cn3cncn3)c3ccc(F)cc3F)CC2)cc1` (stereo unspecified): the MIC80 against Cryptococcus neoformans [1], in the assay with Candida tropicalis [2], with Candida albicans [3], in the assay with Candida parapsilosis [4], against Fonsecaea compacta and in the assay with Trichophyton rubrum [5] was 3.9 to 62.5 ng/mL (≈ 8.25 to 132 nM) in each case.

With `Cc1ccccc1C(=O)OC1CCN(CC(O)(Cn2cncn2)c2ccc(F)cc2F)CC1` (stereo unspecified), the MIC80 with Cryptococcus neoformans [1], with Candida tropicalis [2], against Candida albicans [3], against Candida parapsilosis [4], in the assay on Fonsecaea compacta and against Trichophyton rubrum [5] was 3.9 to 62.5 ng/mL (≈ 8.54 to 137 nM) each time.

For `COc1ccccc1C(=O)OC1CCN(CC(O)(Cn2cncn2)c2ccc(F)cc2F)CC1` (stereo unspecified), the MIC80 against Cryptococcus neoformans [1], against Candida tropicalis [2], with Candida albicans [3], in the assay on Candida parapsilosis [4], with Fonsecaea compacta and in the assay on Trichophyton rubrum [5] was 3.9 to 62.5 ng/mL (≈ 8.25 to 132 nM) each time.

For the compound `O=C(OC1CCN(CC(O)(Cn2cncn2)c2ccc(F)cc2F)CC1)c1cccc([N+](=O)[O-])c1` (stereo unspecified), the MIC80 against Cryptococcus neoformans [1], against Candida tropicalis [2], in the assay with Candida albicans [3], against Candida parapsilosis [4], with Fonsecaea compacta and against Trichophyton rubrum [5] was 3.9 to 62.5 ng/mL (≈ 8 to 128 nM) throughout.

Consider `O=C(OC1CCN(CC(O)(Cn2cncn2)c2ccc(F)cc2F)CC1)c1ccccc1` (stereo unspecified), for which the MIC80 in the assay with Cryptococcus neoformans [1], in the assay with Candida tropicalis [2], in the assay with Candida albicans [3], in the assay on Candida parapsilosis [4], in the assay on Fonsecaea compacta and against Trichophyton rubrum [5] was 3.9 to 62.5 ng/mL (≈ 8.81 to 141 nM) in each case.

In the case of `C#CCN(Cc1ccc(C#N)cc1)CC(O)(Cn1cncn1)c1ccc(F)cc1F` (stereo unspecified), the MIC against Trichophyton rubrum [6], in the assay with Candida albicans [7], in the assay with Aspergillus fumigatus, in the assay with Candida tropicalis [8], in the assay on Candida parapsilosis [9] and with Cryptococcus neoformans [10] was 0.24 to 250 ng/mL each time. The compound also had an MIC with Kluyveromyces marxianus of 0.24 to 250 ng/mL.

As to `C#CCN(Cc1ccccc1C#N)CC(O)(Cn1cncn1)c1ccc(F)cc1F` (stereo unspecified), the minimum inhibitory concentration (MIC) in the assay with Trichophyton rubrum [6], with Candida albicans [7], against Aspergillus fumigatus, against Candida tropicalis [8], in the assay with Candida parapsilosis [9] and with Cryptococcus neoformans [10] was 0.24 to 250 ng/mL each time. In the assay with Kluyveromyces marxianus, this compound had an MIC of 0.24 to 250 ng/mL.

As for `C#CCN(Cc1ccc(OC)cc1)CC(O)(Cn1cncn1)c1ccc(F)cc1F` (stereo unspecified), the MIC against Trichophyton rubrum [6], in the assay on Candida albicans [7], with Aspergillus fumigatus, with Candida tropicalis [8], with Candida parapsilosis [9] and against Cryptococcus neoformans [10] was 0.24 to 250 ng/mL in each case. Besides, in the assay with Kluyveromyces marxianus, the MIC was in the range of 0.24 to 250 ng/mL.

Turning to `C#CCN(Cc1ccccc1Cl)CC(O)(Cn1cncn1)c1ccc(F)cc1F` (stereo unspecified), the MIC in the assay with Trichophyton rubrum [6], with Candida albicans [7], with Aspergillus fumigatus, against Candida tropicalis [8], against Candida parapsilosis [9] and in the assay with Cryptococcus neoformans [10] was 0.24 to 250 ng/mL each time. The compound further returned a minimum inhibitory concentration (MIC) in the assay on Kluyveromyces marxianus of 0.24 to 250 ng/mL.

Consider `C#CCN(Cc1cccc(Cl)c1)CC(O)(Cn1cncn1)c1ccc(F)cc1F` (stereo unspecified), for which the MIC in the assay with Trichophyton rubrum [6], against Candida albicans [7], in the assay on Aspergillus fumigatus, in the assay with Candida tropicalis [8], with Candida parapsilosis [9] and in the assay with Cryptococcus neoformans [10] was 0.24 to 250 ng/mL in each case. This compound also yielded a minimal inhibitory concentration (MIC) in the assay on Kluyveromyces marxianus of 0.24 to 250 ng/mL.

What is called MIC80 is an inhibitory concentration at the 80% level, which refers to growth in some studies and to a panel of isolates in others. Lower therefore signals greater potency. Usually MIC stands for the least concentration at which growth counts as inhibited. A low value points to greater potency.

The record behind these values is ChEMBL document CHEMBL4396865, “Current advances of triazole alcohols derived from fluconazole: Design, in vitro and in silico studies” (2019).
